The results in this text go back to patent US20240307362A1 (priority 2019, published 2024).

Each structure is given as a SMILES string. Read-outs that look alike come from different tables or passages of the source. A value given as a limit tells only on which side of the number the result lay.

Assay [1] deals with Ba/F3-EGFR-insSVD. As to the kind of experiment: Ba/F3 cell survival assay, EGFR-insSVD. Type of assay: cell-based. The protocol:
(§1) 293T cells from ATCC were transfected with pBABEpuro expression constructs for WT EGFR or EGFR-insSVD and pCL-Eco packaging vector using Fugene-6 transfection reagent from Promega. Plates were incubated at 37° C. for 48 h. Retrovirus was harvested by filtering the media supernatant through a 0.45 μm filter.
(§2) Ba/F3 cells purchased from DSMZ were grown in RPMI+10% FBS+10 ng/mL IL-3 and infected with filtered retroviral supernatant at a 1:2 dilution. Polybrene was added to a concentration of 8 μg/mL, plates were spun for 90 min, and incubated overnight at 37° C. 2 μg/mL puromycin was added to the infected cells 24 h after infection and cells were continually grown in the presence of puromycin and 10 ng/mL IL-3. Following stably expressing Ba/F3 cell lines were generated: Ba/F3-EGFR-WT, Ba/F3-EGFR-insSVD, (Ba/F3-vector-control).
For cell survival assays, Ba/F3 cells were grown to a density of 1-2 million cells per mL, spun down and resuspended in media without IL-3, and replated at a concentration 200,000-500,000 cells per mL. The cells ectopically expressing WT EGFR or EGFR-insSVD were plated with 10 ng/mL Millipore Culture grade EGF. The cells ectopically expressing pBABEpuro empty vector were plated with 10 ng/mL IL-3.
2 days later, cells were plated in 50 μL in a 384 well plate at a concentration of 4000 cells per well for cells assayed in the absence of IL-3 and 2000 cells per well for cells assayed in the presence of IL-3. 100 nL of compound was added to each well using a 100 nL pin head, and plates were incubated at 37° C. for 48 h.
Cell viability was measured by adding 20 μL of Cell Titer-Glo Luminescent Cell Viability Reagent diluted 1:3 in PBS. Plates were sealed with Perkin Elmer Top-Seal, inverted several times to mix, and immediately centrifuged at 1000 rpm for 2 min. Plates were incubated in low light conditions for 8-10 min and luminescence was measured.

In assay [2] the test system is Ba/F3-EGFR-WT. As to the kind of experiment: Ba/F3 cell survival assay, WT EGFR. Type of assay: cell-based. As to the method: as §1, §2
The cells ectopically expressing WT EGFR or EGFR-insSVD were plated with 10 ng/mL Millipore Culture grade EGF. The cells ectopically expressing pBABEpuro empty vector were plated with 10 ng/mL IL-3.
100 nL of compound was added to each well using a 100 nL pin head, and plates were incubated at 37° C. for 48 h.
Cell viability was measured by adding 20 μL of Cell Titer-Glo Luminescent Cell Viability Reagent diluted 1:3 in PBS. Plates were sealed with Perkin Elmer Top-Seal, inverted several times to mix, and immediately centrifuged at 1000 rpm for 2 min.

Assay [3] deals with human Bub1 (Homo sapiens (Human), UniProt O43683). As to the kind of experiment: Bub1 high ATP kinase assay (TR-FRET). Type of assay: biochemical. From the text:
Bub1-inhibitory activity of compounds of the present invention at a high ATP concentration was quantified employing the Bub1 TR-FRET high ATP kinase assay as described in the following paragraphs.
N-terminally His6-tagged recombinant catalytic domain of human Bub1 (amino acids 704-1085), expressed in insect cells (Hi5) and purified by Ni-NTA affinity chromatography and subsequent size exclusion chromatography, was used as enzyme.
(In general: TR-FRET usually uses a lanthanide donor and a delayed reading to cut background.)

[4] abbreviates: Mus musculus, BaF3, 48 h, read-out: BA/F3 (insSVD) IC50, cell viability, Cell Titer-Glo, 48 h, with 10 ng/mL EGF, without IL-3.
Where [5] appears, read: Mus musculus, BaF3, 48 h, read-out: BA/F3 (wild type) IC50, cell viability, Cell Titer-Glo, 48 h, with 10 ng/mL EGF, without IL-3.
[6] abbreviates: read-out: Bub1 high ATP (2 mM) IC50, 2 mM ATP.
[7] abbreviates: read-out: BA/F3 (insSVD) IC50, cell viability, Cell Titer-Glo, 48 h, with 10 ng/mL EGF, without IL-3.
Where [8] appears, read: read-out: BA/F3 (wild type) IC50, cell viability, Cell Titer-Glo, 48 h, with 10 ng/mL EGF, without IL-3.

human Bub1, sequence (O43683 704-1085): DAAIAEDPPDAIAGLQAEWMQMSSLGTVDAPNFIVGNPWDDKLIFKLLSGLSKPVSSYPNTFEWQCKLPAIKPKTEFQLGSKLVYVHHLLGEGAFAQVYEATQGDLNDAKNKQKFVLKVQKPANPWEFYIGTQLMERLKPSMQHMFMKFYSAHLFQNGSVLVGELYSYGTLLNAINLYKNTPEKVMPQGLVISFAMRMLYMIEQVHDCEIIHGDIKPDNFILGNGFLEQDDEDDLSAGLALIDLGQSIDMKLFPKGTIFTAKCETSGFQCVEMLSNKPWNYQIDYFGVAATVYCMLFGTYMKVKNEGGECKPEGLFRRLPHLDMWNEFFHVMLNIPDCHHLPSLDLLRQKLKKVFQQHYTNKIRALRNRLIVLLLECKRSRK

Consider `COc1c(Nc2c(-c3ccncc3OCC3CCO3)[nH]c3c2C(=O)NCC3)ccc(F)c1Cl` (racemic) [Example 13, 3-(3-chloro-4-fluoro-2-methoxyanilino)-2-{3-[(oxetan-2-yl)methoxy]pyridin-4-yl}-1,5,6,7-tetrahydro-4H-pyrrolo[3,2-c]pyridin-4-one], for which the IC50 was 348 nM in assay [1] (setting [4]), 2300 nM in assay [2] (setting [5]) and over 20000 nM in assay [3] (setting [6]).

Turning to `COc1c(Br)cccc1Nc1c(-c2ccncc2OCC2CCO2)[nH]c2c1C(=O)NCC2` (single isomer, unassigned) [Example 34, 3-(3-bromo-2-methoxyanilino)-2-{3-[(oxetan-2-yl)methoxy]pyridin-4-yl}-1,5,6,7-tetrahydro-4H-pyrrolo[3,2-c]pyridin-4-one], the IC50 is 20.4 nM in assay [1] (setting [7]); 519 nM in assay [2] (setting [8]); over 20000 nM in assay [3] (Bub1 high ATP (2 mM) IC50, 2 mM ATP).

On to `COc1c(F)cccc1Nc1c(-c2ccncc2OCC2COC2)[nH]c2c1C(=O)NCC2` [Example 18, 3-(3-fluoro-2-methoxyanilino)-2-{3-[(oxetan-3-yl)methoxy]pyridin-4-yl}-1,5,6,7-tetrahydro-4H-pyrrolo[3,2-c]pyridin-4-one], for which the figures for the IC50 in assay [1] (setting [4]), in assay [2] (setting [5]) and in assay [3] (setting [6]) were 80.1 nM, 819 nM and 12100 nM, respectively.

With `COc1c(Cl)cccc1Nc1c(-c2ccncc2OCC2(C)CCN2C)[nH]c2c1C(=O)NCC2` (stereo not drawn) [Example 31, 3-(3-chloro-2-methoxyanilino)-2-{3-[(1,2-dimethylazetidin-2-yl)methoxy]pyridin-4-yl}-1,5,6,7-tetrahydro-4H-pyrrolo[3,2-c]pyridin-4-one], the figures for the IC50 in assay [1] (setting [4]), in assay [2] (setting [5]) and in assay [3] (setting [6]) were 23.7 nM, 391 nM and 7540 nM, respectively.

On to `COc1c(F)cccc1Nc1c(-c2ccncc2OCC2OCC2(C)C)[nH]c2c1C(=O)NCC2` (single isomer, unassigned; (+)) [Example 54, (+)-2-{3-[(3,3-dimethyloxetan-2-yl)methoxy]pyridin-4-yl}-3-(3-fluoro-2-methoxyanilino)-1,5,6,7-tetrahydro-4H-pyrrolo[3,2-c]pyridin-4-one], for which the IC50 is 30.9 nM in assay [1] (setting [7]), 498 nM in assay [2] (setting [8]) and over 20000 nM in assay [3] (setting [6]).

As for `Cc1c(Cl)cc(F)cc1Nc1c(-c2ccncc2OCC2CCO2)[nH]c2c1C(=O)NCC2` (racemic) [Example 40, 3-(3-chloro-5-fluoro-2-methylanilino)-2-{3-[(oxetan-2-yl)methoxy]pyridin-4-yl}-1,5,6,7-tetrahydro-4H-pyrrolo[3,2-c]pyridin-4-one], the results for the IC50 in assay [1] (setting [4]), in assay [2] (setting [5]) and in assay [3] (setting [6]) were 115 nM, 2980 nM and 10500 nM, respectively.

For the compound `Cc1cccc(Nc2c(-c3ccncc3OCC3CCO3)[nH]c3c2C(=O)NCC3)c1Cl` (single isomer, unassigned; (-)) [Example 39, (−)-3-(2-chloro-3-methylanilino)-2-{3-[(oxetan-2-yl)methoxy]pyridin-4-yl}-1,5,6,7-tetrahydro-4H-pyrrolo[3,2-c]pyridin-4-one], the results for the IC50 in assay [1] (setting [7]), in assay [2] (setting [8]) and in assay [3] (setting [6]) were 473 nM, 1650 nM and 8320 nM, respectively.

As for `COc1c(Br)cccc1Nc1c(-c2ccncc2OCC2CCO2)[nH]c2c1C(=O)NCC2` (racemic) [Example 33, 3-(3-bromo-2-methoxyanilino)-2-{3-[(oxetan-2-yl)methoxy]pyridin-4-yl}-1,5,6,7-tetrahydro-4H-pyrrolo[3,2-c]pyridin-4-one], the IC50 in assay [1] (setting [4]) amounted to 32.8 nM; in assay [2] (setting [5]), 1120 nM; in assay [3] (setting [6]) it was 8060 nM.

`CC1(COc2cnccc2-c2[nH]c3c(c2Nc2cccc(Cl)c2OC(F)F)C(=O)NCC3)CCO1` (single isomer, unassigned) [Example 76, 3-[3-chloro-2-(difluoromethoxy)anilino]-2-(3-{[2-methyloxetan-2-yl]methoxy}pyridin-4-yl)-1,5,6,7-tetrahydro-4H-pyrrolo[3,2-c]pyridin-4-one]: the IC50 in assay [1] (setting [7]) was 291 nM; in assay [2] (setting [8]), 1880 nM; in assay [3] (setting [6]) it was over 20000 nM.
